Experiments:
[1] = biological target: human orexin-2 receptor (Homo sapiens (Human), UniProt O43614); assay: FLIPR Ca2+ flux assay, hOX2R; assay type: cell-based; conditions: CHO cells expressing the human orexin-2 receptor; agonist 70 pM Ala-6,12 orexin-A
Protocol: The utility of the compounds in accordance with the present invention as orexin receptor OX1R and/or OX2R antagonists may be readily determined without undue experimentation by methodology well known in the art, including the “FLIPR Ca^2+ Flux Assay” (Okumura et al., Biochem. Biophys. Res. Comm. 280:976-981, 2001). In a typical experiment the OX1 and OX2 receptor antagonistic activity of the compounds of the present invention was determined in accordance with the following experimental method. For intracellular calcium measurements, Chinese hamster ovary (CHO) cells expressing the rat orexin-1 receptor or the human orexin-2 receptor, are grown in Iscove's modified DMEM containing 2 mM L-glutamine, […], 1% hypoxanthine-thymidine supplement, 100 U/ml penicillin, 100 μg/ml streptomycin and 10% heat-inactivated fetal calf serum (FCS). The cells are seeded at 20,000 cells/well into Becton-Dickinson black 384-well clear bottom sterile plates coated with poly-D-lysine. All reagents were from GIBCO-Invitrogen Corp. The seeded plates are incubated overnight at 37° C. and 5% CO2. Ala-6,12 human orexin-A as the agonist is prepared as a 1 mM stock solution in 1% bovine serum albumin (BSA) and diluted in assay buffer (HBSS containing 20 mM HEPES, 0.1% BSA and 2.5 mM probenecid, pH7.4) for use in the assay at a final concentration of 70pM. Test compounds are prepared as 10 mM stock solution in DMSO, then diluted in 384-well plates, first in DMSO, then assay buffer. On the day of the assay, cells are washed 3 times with 100 μl assay buffer and then incubated for 60 min (37° C., 5% CO2) in 60 μl assay buffer containing 1 μM Fluo-4AM ester, 0.02% pluronic acid, and 1% BSA. The dye loading solution is then aspirated and cells are washed 3 times with 100 μl assay buffer. 30 μl of that same buffer is left in each well. Within the Fluorescent Imaging Plate Reader (FLIPR, Molecular Devices), test compounds are added to the plate in a volume of 25 μl, incubated for 5 min and finally 25 μl of agonist is added. Fluorescence is measured for each well at 1 second intervals for 5 minutes and the height of each fluorescence peak is compared to the height of the fluorescence peak induced by 70 pM Ala-6,12 orexin-A with buffer in place of antagonist. For each antagonist, IC50 value (the concentration of compound needed to inhibit 50% of the agonist response) is determined. Alternatively, compound potency can be assessed by a radioligand binding assay (described in Bergman et. al. Bioorg. Med. Chem. Lett. 2008, 18, 1425-1430) in which the inhibition constant (Ki) is determined in membranes prepared from CHO cells expressing either the OX1 or OX2 receptor. The intrinsic orexin receptor antagonist activity of a compound which may be used in the present invention may be determined by these assays.

[2] = biological target: hOX1R (orexin-1 receptor) (Homo sapiens, UniProt O43613); assay: FLIPR Ca2+ flux assay, hOX1R; assay type: cell-based; conditions: CHO cells expressing the orexin-1 receptor (head: hOX1R; method: rat); agonist 70 pM Ala-6,12 orexin-A

Chain of human orexin-2 receptor (O43614 whole entry): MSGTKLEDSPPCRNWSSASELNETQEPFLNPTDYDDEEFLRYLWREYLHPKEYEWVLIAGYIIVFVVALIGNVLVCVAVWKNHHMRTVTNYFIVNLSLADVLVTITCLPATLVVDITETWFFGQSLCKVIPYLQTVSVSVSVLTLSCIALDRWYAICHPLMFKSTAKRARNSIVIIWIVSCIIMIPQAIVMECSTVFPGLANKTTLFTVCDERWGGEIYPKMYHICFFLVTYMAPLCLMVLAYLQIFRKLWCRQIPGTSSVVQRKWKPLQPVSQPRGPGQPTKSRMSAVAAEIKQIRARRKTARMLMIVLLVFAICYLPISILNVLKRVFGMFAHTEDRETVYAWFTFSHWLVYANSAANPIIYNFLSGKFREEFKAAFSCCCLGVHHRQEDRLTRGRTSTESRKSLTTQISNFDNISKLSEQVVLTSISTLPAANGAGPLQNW

Structure (SMILES)	IC50 [1] [nM]	IC50 [2] [nM]	hOX2R FLIPR IC50 [1]
C[C@@H]1C[C@@H](Nc2cc(OCC(F)F)ccn2)CN1C(=O)c1ccccc1C1(C#N)CC1 [Example 2, 1-(2-((2R,4R)-4-((4-(2,2-difluoroethoxy)pyridin-2-yl)amino)-2-methylpyrrolidine-1-carbonyl)phenyl)cyclopropanecarbonitrile]	65.1	10000	
C[C@@H]1C[C@@H](Nc2cc(OCC(F)F)ccn2)CN1C(=O)c1ccccc1-n1ncnn1 [Example 3, (2-(2H-tetrazol-2-yl)phenyl)((2R,4R)-4-((4-(2,2-difluoroethoxy)pyridin-2-yl)amino)-2-methylpyrrolidin-1-yl)methanone]	367	> 10000	
C[C@@H]1C[C@@H](Nc2cc(OCC(F)F)ccn2)CN1C(=O)c1ccsc1-c1ncccn1 [Example 4]	520	> 10000	
C[C@@H]1C[C@@H](Nc2cc(OCC(F)F)ccn2)CN1C(=O)c1ccsc1-n1nccn1 [Example 5]	625	> 10000	
CCOc1ncccc1C(=O)N1C[C@H](Nc2cc(OCC(F)F)ccn2)C[C@H]1C [Example 6, ((2R,4R)-4-((4-(2,2-difluoroethoxy)pyridin-2-yl)amino)-2-methylpyrrolidin-1-yl)(2-ethoxypyridin-3-yl)methanone]	989	> 10000	
C[C@@H]1C[C@@H](Nc2cc(OCC(F)F)ccn2)CN1C(=O)c1cccc2c1CCC2 [Example 7, ((2R,4R)-4-((4-(2,2-difluoroethoxy)pyridin-2-yl)amino)-2-methylpyrrolidin-1-yl)(2,3-dihydro-1H-inden-4-yl)methanone]	2000	> 10000	
C[C@@H]1C[C@@H](Nc2cc(C(F)F)ccn2)CN1C(=O)c1ccccc1-n1nccn1 [Example 9, (2-(2H-1,2,3-triazol-2-yl)phenyl)((2R,4R)-4-((4-(difluoromethyl)pyridin-2-yl)amino)-2-methylpyrrolidin-1-yl)methanone]	13.6	1630	
C[C@@H]1C[C@@H](Nc2ccc(F)cn2)CN1C(=O)c1ccccc1-n1nccn1 [Example 11, (2-(2H-1,2,3-triazol-2-yl)phenyl)((2R,4R)-4-((5-fluoropyridin-2-yl)amino)-2-methylpyrrolidin-1-yl)methanone]	175	6290	
C[C@@H]1C[C@@H](Nc2nccc3ccccc23)CN1C(=O)c1ccccc1-n1nccn1 [Example 12, (2-(2H-1,2,3-triazol-2-yl)phenyl)((2R,4R)-4-(isoquinolin-1-ylamino)-2-methylpyrrolidin-1-yl)methanone]	15.3	257	
C[C@@H]1C[C@@H](Nc2cc(C(F)(F)F)ccn2)CN1C(=O)c1ccccc1-n1nccn1 [Example 14, (2-(2H-1,2,3-triazol-2-yl)phenyl)((2R,4R)-2-methyl-4-((4-(trifluoromethyl)pyridin-2-yl)amino)pyrrolidin-1-yl)methanone]	26.3	1090	
C[C@@H]1C[C@@H](Nc2cc(Cl)ccn2)CN1C(=O)c1ccccc1-n1nccn1 [Example 15, (2-(2H-1,2,3-triazol-2-yl)phenyl)((2R,4R)-4-((4-chloropyridin-2-yl)amino)-2-methylpyrrolidin-1-yl)methanone]	23.1	1160	
Cc1ccnc(N[C@@H]2C[C@@H](C)N(C(=O)c3ccccc3-n3nccn3)C2)c1 [Example 16, (2-(2H-1,2,3-triazol-2-yl)phenyl)((2R,4R)-2-methyl-4-((4-methylpyridin-2-yl)amino)pyrrolidin-1-yl)methanone]	75.9	4070	
C[C@@H]1C[C@@H](Nc2cc(F)ccn2)CN1C(=O)c1ccccc1-n1nccn1 [Example 17, (2-(2H-1,2,3-triazol-2-yl)phenyl)((2R,4R)-4-((4-fluoropyridin-2-yl)amino)-2-methylpyrrolidin-1-yl)methanone]	119	> 10000	
COc1ccnc(N[C@@H]2C[C@@H](C)N(C(=O)c3ccccc3-n3nccn3)C2)c1C#N [Example 18, 2-(((3R,5R)-1-(2-(2H-1,2,3-triazol-2-yl)benzoyl)-5-methylpyrrolidin-3-yl)amino)-4-methoxynicotinonitrile]	167	> 10000	
C[C@@H]1C[C@@H](Nc2cc(C#N)ccn2)CN1C(=O)c1ccccc1-n1nccn1 [Example 19, 2-(((3R,5R)-1-(2-(2H-1,2,3-triazol-2-yl)benzoyl)-5-methylpyrrolidin-3-yl)amino)isonicotinonitrile]	22.9	> 10000	
CC(C)Oc1ccnc(N[C@@H]2C[C@@H](C)N(C(=O)c3ccccc3-n3nccn3)C2)c1 [Example 20, (2-(2H-1,2,3-Triazol-2-yl)phenyl)((2R,4R)-4-((4-isopropoxypyridin-2-yl)amino)-2-methylpyrrolidin-1-yl)methanone]	39.8	2800	
CCOc1ccnc(N[C@@H]2C[C@@H](C)N(C(=O)c3ccccc3-n3nccn3)C2)c1 [Example 21, (2-(2H-1,2,3-triazol-2-yl)phenyl)((2R,4R)-4-((4-ethoxypyridin-2-yl)amino)-2-methylpyrrolidin-1-yl)methanone]	31.5	3990	
C[C@@H]1C[C@@H](N(C)c2cc(C#N)ccn2)CN1C(=O)c1ccccc1-n1nccn1 [Example 23, 2-(((3R,5R)-1-(2-(2H-1,2,3-triazol-2-yl)benzoyl)-5-methylpyrrolidin-3-yl)(methyl)amino)isonicotinonitrile]		> 10000	120/5
COc1ccnc(N[C@@H]2C[C@@H](C)N(C(=O)c3ccccc3C3(C#N)CC3)C2)c1 [Example 24, 1-(2-((2R,4R)-4-((4-Methoxypyridin-2-yl)amino)-2-methylpyrrolidine-1-carbonyl)phenyl)cyclopropanecarbonitrile]	23.9	2720	
COc1cccnc1N[C@@H]1C[C@@H](C)N(C(=O)c2ccccc2-n2nccn2)C1 [Example 25, (2-(2H-1,2,3-triazol-2-yl)phenyl)((2R,4R)-4-((3-methoxypyridin-2-yl)amino)-2-methylpyrrolidin-1-yl)methanone]	36.1	3380	
C[C@@H]1C[C@@H](Nc2cc(C(F)F)ccn2)CN1C(=O)c1ccsc1-n1nccn1 [Example 27, (2-(2H-1,2,3-Triazol-2-yl)thiophen-3-yl)((2R,4R)-4-((4-(difluoromethyl)pyridin-2-yl)amino)-2-methylpyrrolidin-1-yl)methanone]	67.8	> 10000	
C[C@@H]1C[C@@H](Nc2cc(C(F)F)ccn2)CN1C(=O)c1cscc1-n1nccn1 [Example 28, (4-(2H-1,2,3-triazol-2-yl)thiophen-3-yl)((2R,4R)-4-((4-(difluoromethyl)pyridin-2-yl)amino)-2-methylpyrrolidin-1-yl)methanone]	102	> 10000	
C[C@@H]1C[C@@H](Nc2cc(C#N)ccn2)CN1C(=O)c1ccccc1-n1ncnn1 [Example 29, 2-(((3R,5R)-1-(2-(2H-tetrazol-2-yl)benzoyl)-5-methylpyrrolidin-3-yl)amino)isonicotinonitrile]	302	> 10000	
C[C@@H]1C[C@@H](Nc2cc(C#N)ccn2)CN1C(=O)c1ccccc1-c1ncccn1 [Example 30, 2-(((3R,5R)-5-Methyl-1-(2-(pyrimidin-2-yl)benzoyl)pyrrolidin-3-yl)amino)isonicotinonitrile]	31.1	> 10000	
COC(=O)c1c(OC)ccnc1N[C@@H]1C[C@@H](C)N(C(=O)c2ccccc2-n2nccn2)C1 [Example 32, Methyl 2-(((3R,5R)-1-(2-(2H-1,2,3-triazol-2-yl)benzoyl)-5-methylpyrrolidin-3-yl)amino)-4-methoxynicotinate]	29.7	6750	
CCOC(=O)c1c(OC)ccnc1N[C@@H]1C[C@@H](C)N(C(=O)c2ccccc2-n2nccn2)C1 [Example 33, Ethyl 2-(((3R,5R)-1-(2-(2H-1,2,3-triazol-2-yl)benzoyl)-5-methylpyrrolidin-3-yl)amino)-4-methoxynicotinate]	31.1	4070	
